These results are taken from publication PMC6155426, “Metabolite Profiling of Eastern Teaberry (Gaultheria procumbens L.) Lipophilic Leaf Extracts with Hyaluronidase and Lipoxygenase Inhibitory Activity” (Molecules : A Journal of Synthetic Chemistry and Natural …, 2017).

Where two headings read alike, the source gives them in different places.

Assay [1] has as its target T1, bovine testis hyaluronidase (Bos taurus, UniProt Q2YDK3).
T1 construct: purchased Sigma-Aldrich; host or cells: bovine testis (tissue-derived preparation)
T1 sequence (Q2YDK3 36-553): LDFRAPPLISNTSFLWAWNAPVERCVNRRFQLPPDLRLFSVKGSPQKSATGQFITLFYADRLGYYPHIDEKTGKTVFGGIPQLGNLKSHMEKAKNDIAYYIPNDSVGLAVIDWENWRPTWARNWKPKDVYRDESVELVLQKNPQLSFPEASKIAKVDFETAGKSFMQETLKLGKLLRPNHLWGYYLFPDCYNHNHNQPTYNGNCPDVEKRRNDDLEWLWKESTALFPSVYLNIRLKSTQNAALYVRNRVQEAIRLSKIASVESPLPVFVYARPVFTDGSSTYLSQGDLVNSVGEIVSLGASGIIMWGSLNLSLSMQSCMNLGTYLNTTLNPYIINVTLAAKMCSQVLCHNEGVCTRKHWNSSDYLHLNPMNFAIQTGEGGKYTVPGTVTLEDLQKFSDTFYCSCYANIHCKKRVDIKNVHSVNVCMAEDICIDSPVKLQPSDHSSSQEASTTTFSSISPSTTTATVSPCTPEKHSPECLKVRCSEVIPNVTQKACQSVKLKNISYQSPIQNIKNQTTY
Kind of assay: Hyaluronidase inhibition test (turbidimetric, 96-well). The class given is biochemical. To be noted: for IC50: read-out: HYAL inhibitory activity (IC50) (converted). The method, then:
(§1) Heparin sodium salt was purchased from WZF Polfa (Warsaw, Poland). HPLC grade solvents (methanol and orthophosphoric acid) were from Avantor Performance Materials (Avantor PM, Gliwice, Poland). All other chemicals and solvents were of analytical grade and supplied by Avantor PM. In all analyses redistilled water was used. Enzymatic tests were done using 96-well plates and monitored using a Synergy 4 microplate reader (BioTek, Winooski, VT, USA). Column chromatography (CC) was performed on silica gel 60 G (0.2–0.5 mm, Macherey-Nagel, Düren, Germany). Analytical TLC was carried out on silica gel 60 G precoated plates (Merck, Warsaw, Poland) using horizontal DC chambers (Chromdes, Lublin, Poland). Flash chromatography was carried out on an Interchim puriFlash^TM 430evo chromatograph (Interchim Inc., San Pedro, CA, USA) equipped with a UV-Vis detector scanning in the wavelength range of 200–600 nm, a fraction collector, and Interchim puriFlash Silica HC (50 µm, 72 mm × 15 mm, 4 g) preparative columns. The flow rate was 7 mL/min. The mobile phase consisted of petroleum ether (A), chloroform (B), and methanol (C). A linear gradient system was used for elution (A:B:C): 0–9 min, 75:25:0 (v/v/v); 9–10 min, 49:49:2; 10–15 min, 45:45:10. Before injection, samples were dissolved in chloroform. Melting points (uncorrected) were determined on a Boetius apparatus (Carl Zeiss, Jena, Germany). UV-Vis spectra, before and after adding ionization and complexation reagents, were recorded at 25 °C on a UV-1601 Spectrophotometer (Rayleigh, Beijing, China) in methanol, according to Mabry et al.. ESI-MS spectra were measured on a UHPLC-3000 RS chromatograph (Dionex, Dreieich, Germany) equipped with a dual low-pressure gradient pump, an autosampler, a diode array detector, and an AmaZon SL ion trap mass spectrometer with an ESI interface (Bruker Daltonik, Bremen, Germany). IR spectra were recorded in KBr on a Bruker Alpha FT-IR spectrometer (Bruker Daltonik). Optical rotation ( [α]D20 ) was measured in chloroform on a PolAAr 3001 polarimeter (Optical Activity, Ramsey, UK). ^1H-NMR, ^13C-NMR, ^1H-^1H COSY, HMQC, and HMBC spectra were recorded at 25 °C on a Bruker Daltonik III 600 MHz spectrometer in CDCl3 and with TMS as the internal standard.
Inhibitory activity of the tested analytes (extracts and individual compounds) was determined by turbidimetric method adapted for 96-well microtiter plates as described previously. The protocol was started by adding 20 μL of the tested analyte solution in monosodium phosphate buffer (pH = 7.0) to 40 μL of hyaluronidase solution (22.55 U/mL) in monosodium phosphate buffer (pH = 7.0) and the mixture was incubated at 37.0 ± 0.1 °C in the dark for 10 min. After this time 40 μL of hyaluronic acid solution (0.03%, w/v) in monosodium phosphate buffer (pH = 5.35) was added and the mixture was further incubated at 37.0 ± 0.1 °C in the dark for 45 min. Finally 300 μL of bovine serum albumin solution (0.1%, w/v) in sodium acetate buffer (pH = 3.75) was added to the mixture and incubated in room temperature for 10 min. Changes in turbidity were measured at 600 nm. […] At each level three independent experiments were carried out in duplicate. Heparin was used as a positive control. Activity of the tested analytes was calculated as inhibition percentage (% Inhibition) of hyaluronidase according to the Equation (1): (1) % Inhibition=100×(1−(AHA−AAN/AHA−AHYAL)), where AHA—absorbance of solution without the enzyme, AHYAL—absorbance of solution without the tested analyte (negative control), AAN—absorbance of solution with the tested analyte.

The target in assay [2] is T2, lipoxygenase from soybean (Glycine max, UniProt P08170).
T2 construct: purchased Sigma-Aldrich; host or cells: soybean (plant-derived preparation)
T2 sequence (P08170 1-839): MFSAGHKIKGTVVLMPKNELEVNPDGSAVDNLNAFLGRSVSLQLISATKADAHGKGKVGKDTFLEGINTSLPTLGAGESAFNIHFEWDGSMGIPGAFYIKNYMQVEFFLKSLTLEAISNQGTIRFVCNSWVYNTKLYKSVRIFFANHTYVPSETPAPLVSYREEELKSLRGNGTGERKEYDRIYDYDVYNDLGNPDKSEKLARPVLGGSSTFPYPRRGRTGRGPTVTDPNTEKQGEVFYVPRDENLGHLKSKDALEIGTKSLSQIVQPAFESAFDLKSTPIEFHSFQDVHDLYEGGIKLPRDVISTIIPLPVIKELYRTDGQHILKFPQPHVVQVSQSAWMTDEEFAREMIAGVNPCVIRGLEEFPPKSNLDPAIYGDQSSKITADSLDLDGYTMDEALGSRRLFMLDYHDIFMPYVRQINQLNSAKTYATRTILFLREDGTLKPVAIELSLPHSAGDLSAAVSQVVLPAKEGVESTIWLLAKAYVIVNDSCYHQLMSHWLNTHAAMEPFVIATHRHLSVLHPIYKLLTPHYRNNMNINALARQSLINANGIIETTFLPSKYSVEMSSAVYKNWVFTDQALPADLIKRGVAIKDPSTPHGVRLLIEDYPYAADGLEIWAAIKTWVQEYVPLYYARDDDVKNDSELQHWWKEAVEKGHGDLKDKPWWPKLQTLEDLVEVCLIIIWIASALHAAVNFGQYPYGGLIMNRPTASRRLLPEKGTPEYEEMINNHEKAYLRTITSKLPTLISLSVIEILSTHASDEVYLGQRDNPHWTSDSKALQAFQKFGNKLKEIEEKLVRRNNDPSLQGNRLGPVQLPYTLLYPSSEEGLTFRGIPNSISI
Kind of assay: Lipoxygenase inhibition test (spectrophotometric, 96-well). The class given is biochemical. The method, then:
as §1
Inhibitory activity of the tested analytes (extracts and individual compounds) was determined by a spectrophotometric method adjusted to a 96-well microtiter plates according to Granica et al.. The protocol was started by adding 50 μL of the tested analyte solution in sodium borate buffer (pH = 9.0), then 50 μL of linoleic acid solution (134 μM) was added, followed by 50 μL of lipoxygenase solution (167 U/mL) in sodium borate buffer (pH = 9.0). The reaction mixture was vigorously shaken and changes in absorbance were measured at 234 nm over a period of 15 min with 1 min intervals. […] At each level three independent experiments were carried out in duplicate. Indomethacin was used as a positive control. Activity of the tested analytes was calculated as inhibition percentage (% Inhibition) of lipoxygenase according to Equation (2): (2) % Inhibition=100×(1−(AAN−ALA/ALOX)), where AAN—absorbance of solution with the tested analyte, ALA—absorbance of solution without the enzyme, ALOX—absorbance of solution without the tested analyte (negative control). The absorbance value in the 10th minute of the reaction were used for the calculation.

[3] abbreviates: tested 100−1000 μg/mL, hyaluronic acid substrate, 37 °C, mean ± SD (n = 3 × 2).
Setting [4] is: tested 50−1000 μg/mL, linoleic acid substrate, pH 9.0, mean ± SD (n = 3 × 2), read-out: LOX inhibitory activity (IC50) (converted).

Broadly, the IC50 is the concentration that inhibits the measured activity by half.

As for `CC[C@H](CC[C@@H](C)[C@H]1CC[C@H]2[C@@H]3CC=C4C[C@@H](O)CC[C@]4(C)[C@H]3CC[C@]12C)C(C)C` [β-SIT, β-sitosterol], the IC50 in assay [1] (setting [3]) was 1650 µM; in assay [2] (setting [4]) it was 1910 µM. For `COC(=O)c1ccccc1O` [SM, methyl salicylate] the same measures were 5220 µM and 2570 µM. The corresponding values for `CC1=CC(=O)CC(C)(C)C1(O)C=CC(C)O` [VO, (6S,9R)-6-hydroxy-3-oxo-α-ionol] are 1590 µM and 540 µM. For the molecule `CC1(C)CC[C@]2(C(=O)O)CC[C@]3(C)C(=CC[C@@H]4[C@@]5(C)CC[C@H](O)C(C)(C)[C@@H]5CC[C@]43C)[C@@H]2C1` [OA, oleanolic acid], the IC50 in assay [2] was 2020 µM.

With heparin [HP, reference compound], the “HYAL inhibitory activity (IC50)” value in assay [1] (setting [3]) is 366.24 ± 14.72 µg/mL. As for `COc1cc2oc(-c3ccc(O)cc3)c(OC)c(=O)c2c(O)c1C` [DL, 4′,5-dihydroxy-3,7-dimethoxy-6-methylflavone], the IC50 in assay [1] (setting [3]) was 1320 µM; in assay [2] (setting [4]), 920 µM. With `C[C@H]1[C@H](C)CC[C@]2(C(=O)O)CC[C@]3(C)C(=CC[C@@H]4[C@@]5(C)CC[C@H](O)C(C)(C)[C@@H]5CC[C@]43C)[C@H]12` [UA, ursolic acid], the values for the half-inhibitory concentration (IC50) in assay [1] (setting [3]) and in assay [2] were 832 µM and 1610 µM, respectively. Regarding `COc1cc2oc(-c3ccc(O)cc3)cc(=O)c2c(O)c1C` [DS, 4′,5-dihydroxy-7-methoxy-6-methylflavone], the results for the IC50 in assay [1] (setting [3]) and in assay [2] (setting [4]) were 1570 µM and 1120 µM, respectively. Regarding `COc1ccc2c(c1)c(CC(=O)O)c(C)n2C(=O)c1ccc(Cl)cc1` [IND, indomethacin, reference compound], the 50% inhibitory concentration (IC50) in assay [2] (setting [4]) is 259 µM. As to `COC(=O)c1ccccc1` [BM, methyl benzoate], the IC50 was 5700 µM in assay [1] (setting [3]) and 2750 µM in assay [2].

Regarding `CCCCCCCCCCCCCCCCCCCCCC` [DOC, docosane], the IC50 in assay [1] (setting [3]) is more than 3220 µM; in assay [2] (setting [4]), 2640 µM. For the same molecule, in assay [1] (tested concentration range 100−1000 μg/mL), the “inhibitory activity towards hyaluronidase in the tested concentration range” value is on record as “no inhibitory activity”.
